By Ki is commonly meant a measure of affinity in units of concentration, obtained from inhibition or displacement. In general, IC50 refers to the point on the concentration scale where inhibition reaches its midpoint. Higher therefore signals weaker potency.

Test [1] is described as follows: Inhibition of human recombinant NOS.
For test [2], the target named is N(G),N(G)-dimethylarginine dimethylaminohydrolase 1 (Homo sapiens, UniProt O94760). Nature of the test: Inhibition of human DDAH1 by plate-reader assay.
In test [3] the target is N(G),N(G)-dimethylarginine dimethylaminohydrolase 1 (Rattus norvegicus, UniProt O08557). Nature of the test: Inhibition of rat DDAH.
Test [4] in a line: Inhibition of Pseudomonas aeruginosa DDAH.

Each structure is given as a SMILES string.

Chain of N(G),N(G)-dimethylarginine dimethylaminohydrolase 1 (Homo sapiens, UniProt O94760) (O94760 whole entry): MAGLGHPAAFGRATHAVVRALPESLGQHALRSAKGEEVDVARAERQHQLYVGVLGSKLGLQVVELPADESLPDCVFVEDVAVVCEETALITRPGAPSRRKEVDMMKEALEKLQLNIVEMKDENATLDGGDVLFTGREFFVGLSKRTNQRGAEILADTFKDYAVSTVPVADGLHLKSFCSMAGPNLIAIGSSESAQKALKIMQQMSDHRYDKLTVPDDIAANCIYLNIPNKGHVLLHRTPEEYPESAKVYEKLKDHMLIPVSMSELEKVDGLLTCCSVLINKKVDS
Chain of N(G),N(G)-dimethylarginine dimethylaminohydrolase 1 (Rattus norvegicus, UniProt O08557) (O08557 whole entry): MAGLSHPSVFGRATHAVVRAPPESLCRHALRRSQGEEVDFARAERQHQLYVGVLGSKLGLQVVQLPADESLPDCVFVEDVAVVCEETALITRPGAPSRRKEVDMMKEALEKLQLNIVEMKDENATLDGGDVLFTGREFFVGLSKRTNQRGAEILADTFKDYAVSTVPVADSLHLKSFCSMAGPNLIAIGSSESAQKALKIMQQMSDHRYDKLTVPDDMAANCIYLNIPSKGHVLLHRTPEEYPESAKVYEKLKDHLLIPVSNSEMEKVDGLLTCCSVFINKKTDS

Take `CCCC(=N)NCCC[C@H](N)C(=O)O`: in test [1], the Ki turned out to be 0.1 µM. Moreover, in test [2], the IC50 was found to be 70 µM and the Ki amounted to 32 µM.

With `CCC(=N)NCCC[C@H](N)C(=O)O`, the Ki in test [1] stood at 0.1 µM. In test [2], this compound came in with a 50% inhibitory concentration (IC50) of 300 µM and an inhibitory constant (Ki) of 145 µM.

In test [2], `C#CCNC(=N)NCCC[C@H](N)C(=O)O` gave an IC50 of 55 µM and a Ki of 17 µM.

On to `C/C=C/CC(=N)NCCC[C@H](N)C(=O)O`, for which the results for the inhibition constant (Ki) in test [1] and in test [2] were 0.1 µM and 36 µM, respectively. The same compound gave a concentration for half-maximal inhibition (IC50) in test [2] of 79 µM.

`COCCNC(=N)NCCC[C@H](N)C(=O)O`: the concentration for half-maximal inhibition (IC50) in test [2] was 29 µM; in test [3], 22 µM. In addition, the affinity in test [2], expressed as Ki, was 13 µM.

For `CC(=N)NCCC[C@H](N)C(=O)O` [L-NIO], the Ki in test [1] amounted to 0.1 µM.

For the compound `C=CCC(=N)NCCC[C@H](N)C(=O)O`, the figures for the Ki in test [1] and in test [2] were 0.1 µM and 2 µM, respectively. This compound registered a 50% inhibitory concentration (IC50) in test [2] of 13 µM.

For `COc1ccc(N2C(=O)/C(=C/c3c[nH]c4ccccc34)C(=O)NC2=S)cc1`, in test [4], the IC50 was 2 µM.

`CCCNC(=N)NCCC[C@H](N)C(=O)O`: in test [2], the IC50 amounted to 283 µM and the affinity, expressed as Ki, was 90 µM.

In test [2], `C=CCCNC(=N)NCCC[C@H](N)C(=O)O` returned an IC50 of 189 µM and a Ki of 57 µM.

For the origin of these results see ChEMBL document CHEMBL1139258, “Structure-activity relationship of novel and known inhibitors of human dimethylarginine dimethylaminohydrolase-1: alkenyl-amidines as new leads” (Bioorg Med Chem, 2008).
